{
  "source": "paper PMC2211560",
  "about": "(PLoS Medicine, 2008)",
  "origin": "cited, not measured here",
  "key": {"[1]": {"conditions": "rats, cited from earlier work"}, "[2]": {"conditions": "monkeys, cited from earlier work"}, "[3]": {"conditions": "cited from earlier work"}, "several tumor types": {"system": "several tumor types", "conditions": "Phase I trials; renal cell cancer, soft tissue sarcoma, cervical, endometrial, non-small cell cancer, non-Hodgkins lymphoma; cited from earlier work"}, "[4]": {"conditions": "rats and monkeys; daily for 14 days or daily for 5 days IV every 2 weeks, 4 courses; cited from earlier work"}, "[5]": {"conditions": "in vitro or in vivo; cited from earlier work"}, "[6]": {"system": "cytochrome P450 3A (CYP3A)", "conditions": "human liver microsomal fractions; cited from earlier work"}, "[7]": {"conditions": "cited from earlier work", "remark": "listed apart in the source"}, "[8]": {"conditions": "doses of 0.1-2.5 mg/kg, printed jointly for monkeys and rats"}},
  "note": "Read-outs that look alike come from different tables or passages of the source.",
  "data": [
    {"smiles": "CO[C@H]1C[C@@H]2CC[C@@H](C)[C@@](O)(O2)C(=O)C(=O)N2CCCC[C@H]2C(=O)O[C@H]([C@H](C)C[C@@H]2CC[C@@H](OC(=O)C(C)(CO)CO)[C@H](OC)C2)CC(=O)[C@H](C)/C=C(\\C)[C@@H](O)[C@@H](OC)C(=O)[C@H](C)C[C@H](C)/C=C/C=C/C=C/1C", "note": "[CCI-779]", "values": [
      {"measurement": "elimination half life", "setting": "[1]; [8]", "result": "8 to 16", "unit": "h"},
      {"measurement": "volume of distribution (Vdss)", "setting": "[1]", "result": "13 to 19", "unit": "L/kg"},
      {"measurement": "elimination half life", "setting": "[2]; [8]", "result": "8 to 16", "unit": "h"},
      {"measurement": "volume of distribution (Vdss)", "setting": "[2]", "result": "1 to 5", "unit": "L/kg"},
      {"measurement": "blood/plasma (B/P) ratio, mean (range)", "setting": "[3]; 0.75 to 3.12 mg/m^2 daily x 5 schedule", "result": "9.8 (2.4-20)"},
      {"measurement": "mean exposure ratio (rapamycin to CCI-779)", "setting": "[3]; blood, after CCI-779", "result": "~3.2"},
      {"measurement": "half-life", "setting": "[3]; weekly dosing", "result": 19.3, "unit": "h"},
      {"measurement": "half-life, range", "setting": "[3]; weekly dosing", "result": "13 to 39", "unit": "h"},
      {"measurement": "mean clearance", "setting": "[3]; weekly dosing", "result": 22, "unit": "L/h"},
      {"measurement": "volume of distribution at steady state", "setting": "[3]; weekly dosing", "result": 306, "unit": "L"},
      {"measurement": "Tumor regression", "setting": "several tumor types", "result": "less than 50%"},
      {"measurement": "life-threatening toxicity", "setting": "[4]", "result": "No life-threatening toxicity was observed"},
      {"measurement": "mutagenic effects", "setting": "[5]", "result": "no mutagenic effects"},
      {"measurement": "metabolising enzyme", "setting": "[6]", "result": "primarily metabolized by cytochrome P450 3A (CYP3A)"},
      {"measurement": "MTD", "setting": "[7]; daily x 5 every 2 weeks, heavily pretreated patients", "result": 15, "unit": "mg/m^2"},
      {"measurement": "MTD", "setting": "[7]; daily x 5 every 2 weeks, minimally pretreated patients", "result": 19.1, "unit": "mg/m^2"},
      {"measurement": "MTD", "setting": "[7]; weekly schedule, doses 7.5 mg/m^2 to 220 mg/m^2", "result": "has not yet been reached"}
    ]}
  ]
}
